Experimental data taken from US9108983B2, “Pyrrole compounds, a process for their preparation and pharmaceutical compositions containing them” (LES LABORATOIRES SERVIER, priority 2013, dated 2015).
Counter-ions that a name gives are not always drawn. Like-named read-outs stand apart in the source and are kept apart here.

How the values were obtained:
Bcl-2 protein = Bcl-2 protein (histag-Bcl-2, UniProtKB P10415) (Homo sapiens (Human), UniProt P10415); test: Inhibition of Bcl-2 by the fluorescence polarisation technique; assay type: binding; settings: incubation for 2 hours, read-out: IC50 (nM) Bcl-2 FP
Chain of Bcl-2 protein (P10415 whole entry): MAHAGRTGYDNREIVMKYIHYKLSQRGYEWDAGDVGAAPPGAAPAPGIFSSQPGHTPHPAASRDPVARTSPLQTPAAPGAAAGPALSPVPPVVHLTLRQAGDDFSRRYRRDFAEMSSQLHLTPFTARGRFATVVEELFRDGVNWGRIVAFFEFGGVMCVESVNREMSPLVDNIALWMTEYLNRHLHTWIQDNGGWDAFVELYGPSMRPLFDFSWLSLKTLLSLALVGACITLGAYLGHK
Protocol: The fluorescence polarisation tests were carried out on microplates (384 wells). The Bcl-2 protein, labelled (histag-Bcl-2 such that Bcl-2 corresponds to the UniProtKB® primary accession number: P10415), at a final concentration of 2.50×10^−8 M, is mixed with a fluorescent peptide (Fluorescein-[…]), at a final concentration of 1.00×10^−8 M in a buffer solution (Hepes 10 mM, NaCl 150 mM, Tween20 0.05%, pH 7.4), in the presence or absence of increasing concentrations of test compounds. After incubation for 2 hours, the fluorescence polarisation is measured.

[1] = test system: RS4;11 leukaemia tumour line; test: In vitro cytotoxicity (Microculture Tetrazolium Assay); assay type: cell-based; settings: RS4;11 cells, exposed for 48 hours, cell viability, read-out: IC50 (nM) MTT RS4;11
Protocol: The cytotoxicity studies were carried out on the RS4;11 leukaemia tumour line.
The cells are distributed onto microplates and exposed to the test compounds for 48 hours.
The cell viability is then quantified by a colorimetric assay, the Microculture Tetrazolium Assay (Cancer Res., 1987, 47, 939-942).

Row | SMILES | IC50 ([1]; Homo sapiens, RS4-11, 48 h) [nM] | other results
1 | COCCN(C)CCn1c(-c2cc3c(cc2C(=O)N2Cc4ccccc4C[C@H]2C)OCO3)cc(C(=O)N(c2ccc(O)cc2)c2cnn(C)c2)c1C [Example 99, N-(4-Hydroxyphenyl)-1-{2-[(2-methoxyethyl)(methyl)amino]ethyl}-2-methyl-5-(6-{[(3R)-3-methyl-3,4-dihydroisoquinolin-2(1H)-yl]carbonyl}-1,3-benzodioxol-5-yl)-N-(1-methyl-1H-pyrazol-4-yl)-1H-pyrrole-3-carboxamide hydrochloride] | 108 | IC50 (Bcl-2 protein): 6.4 nM
2 | Cc1c(N(C(=O)c2cc(-c3cc4c(cc3C(=O)N3Cc5ccccc5C[C@H]3CN3CCOCC3)OCCO4)n(C)c2C)c2ccc(O)cc2)cc(C#N)n1C [Example 413, N-(5-Cyano-1,2-dimethyl-1H-pyrrol-3-yl)-N-(4-hydroxyphenyl)-1,2-dimethyl-5-(7-{[(3S)-3-(morpholin-4-ylmethyl)-3,4-dihydroisoquinolin-2(1H)-yl]-carbonyl}-2,3-dihydro-1,4-benzodioxin-6-yl)-1H-pyrrole-3-carboxamide hydrochloride] | 9.43 | IC50 (Bcl-2 protein): 3.1 nM
3 | Cc1c(N(C(=O)c2cc(-c3cc(Cl)ccc3C(=O)N3Cc4ccccc4C[C@H]3CN3CCOCC3)n(C)c2C)c2ccc(O)cc2)cn(C)c1C#N [Example 458, 5-(5-Chloro-2-{[(3S)-3-(morpholin-4-ylmethyl)-3,4-dihydroisoquinolin-2(1H)-yl]carbonyl}phenyl)-N-(5-cyano-1,4-dimethyl-1H-pyrrol-3-yl)-N-(4-hydroxyphenyl)-1,2-dimethyl-1H-pyrrole-3-carboxamide hydrochloride] | 197 | IC50 (Bcl-2 protein): 10.5 nM
4 | Cc1c(C(=O)N(C)c2ccc(O)cc2)cc(-c2cc(CCNC(=O)Cc3ccccc3)ccc2C(=O)N2Cc3ccccc3C[C@H]2C)n1C [Example 57, N-(4-Hydroxyphenyl)-N,1,2-trimethyl-5-(2-{[(3R)-3-methyl-3,4-dihydroisoquinolin-2(1H)-yl]carbonyl}-5-{2-[(phenylacetyl)amino]ethyl}phenyl)-1H-pyrrole-3-carboxamide] | > 600 | IC50 (Bcl-2 protein): 80 nM
5 | COc1ncc(N(C(=O)c2cc(-c3ccccc3C(=O)N3Cc4ccccc4C[C@H]3CN3CCOCC3)n(C)c2C)c2ccc(O)cc2)cn1 [Example 424, N-(4-Hydroxyphenyl)-N-(2-methoxypyrimidin-5-yl)-1,2-dimethyl-5-(2-{[(3S)-3-(morpholin-4-ylmethyl)-3,4-dihydroisoquinolin-2(1H)-yl]carbonyl}phenyl)-1H-pyrrole-3-carboxamide hydrochloride] | 102 | IC50 (Bcl-2 protein): 13.6 nM
6 | Cc1c(C(=O)N(c2ccccc2)c2cnc3c(ccn3C)c2)cc(-c2cc(F)c(O)cc2C(=O)N2Cc3ccccc3C[C@H]2CN2CCOCC2)n1C [Example 443, 5-(5-Fluoro-4-hydroxy-2-{[(3S)-3-(morpholin-4-ylmethyl)-3,4-dihydroisoquinolin-2(1H)-yl]carbonyl}phenyl)-1,2-dimethyl-N-(1-methyl-1H-pyrrolo[2,3-b]pyridin-5-yl)-N-phenyl-1H-pyrrole-3-carboxamide] | 57.9 | 
7 | Cn1cc(C(=O)N(c2ccccc2)c2ccccc2)cc1-c1ccccc1C(=O)N1Cc2ccccc2C[C@H]1CN [Example 2, 5-(2-{[(3S)-3-(Aminomethyl)-3,4-dihydroisoquinolin-2(1H)-yl]carbonyl}phenyl)-1-methyl-N,N-diphenyl-1H-pyrrole-3-carboxamide] | 1660 | 
8 | C[C@@H]1Cc2ccccc2CN1C(=O)c1cc2c(cc1-c1cc(C(=O)N(c3ccc(O)cc3)c3cnn(C)c3)c(CCN3CCOCC3)n1C)OCO2 [Example 81, N-(4-Hydroxyphenyl)-1-methyl-5-(6-{[(3R)-3-methyl-3,4-dihydroisoquinolin-2(1H)-yl]carbonyl}-1,3-benzodioxol-5-yl)-N-(1-methyl-1H-pyrazol-4-yl)-2-[2-(morpholin-4-yl)ethyl]-1H-pyrrole-3-carboxamide hydrochloride] | 249 | 
9 | Cc1c(C(=O)N(c2ccc(O)cc2)c2cnn(C)c2)cc(-c2ccc(Cl)cc2C(=O)N2Cc3ccccc3C[C@H]2CN2CCOCC2)n1C [Example 466, 5-(4-Chloro-2-{[(3S)-3-(morpholin-4-ylmethyl)-3,4-dihydroisoquinolin-2(1H)-yl]carbonyl}phenyl)-N-(4-hydroxyphenyl)-1,2-dimethyl-N-(1-methyl-1H-pyrazol-4-yl)-1H-pyrrole-3-carboxamide hydrochloride] | 493 | 
10 | CC(C)n1cc(C(=O)N(c2ccc(O)cc2)c2ccc3c(ccn3C)c2)cc1-c1cc(Cl)ccc1C(=O)N1Cc2ccccc2C[C@H]1CN1CCN(C)CC1 [Example 8] |  | IC50 [1]: 255 nM
11 | Cc1c(N(C(=O)c2cc(-c3cc(Cl)ccc3C(=O)N3Cc4ccccc4C[C@H]3CN3CCOCC3)n(C)c2C)c2ccc(O)cc2)cc(C#N)n1C [Example 386, 5-(5-Chloro-2-{[(3S)-3-(morpholin-4-ylmethyl)-3,4-dihydroisoquinolin-2(1H)-yl]carbonyl}phenyl)-N-(5-cyano-1,2-dimethyl-1H-pyrrol-3-yl)-N-(4-hydroxyphenyl)-1,2-dimethyl-1H-pyrrole-3-carboxamide hydrochloride] |  | IC50 ([1]; Homo sapiens): 9.23 nM
12 | Cl.[2H]C([2H])([2H])n1c(C#N)cc(N(C(=O)c2cc(-c3cc(Cl)ccc3C(=O)N3Cc4ccccc4C[C@H]3CN3CCOCC3)n(C)c2C)c2ccc(O)cc2)c1C [Example 449, 5-(5-Chloro-2-{[(3S)-3-(morpholin-4-ylmethyl)-3,4-dihydroisoquinolin-2(1H)-yl]carbonyl}phenyl)-N-[5-cyano-2-methyl-1-(trideuteriomethyl)-1H-pyrrol-3-yl]-N-(4-hydroxyphenyl)-1,2-dimethyl-1H-pyrrole-3-carboxamide hydrochloride] |  | IC50 ([1]; Homo sapiens): 11.9 nM
13 | Cc1c(C(=O)N(c2ccc(O)cc2)c2cnn(C)c2)cc(-c2cc(F)ccc2C(=O)N2Cc3ccccc3C[C@H]2CN2CCOCC2)n1C [Example 67, 5-(5-Fluoro-2-{[(3S)-3-(morpholin-4-ylmethyl)-3,4-dihydroisoquinolin-2(1H)-yl]carbonyl}phenyl)-N-(4-hydroxyphenyl)-1,2-dimethyl-N-(1-methyl-1H-pyrazol-4-yl)-1H-pyrrole-3-carboxamide hydrochloride] | 98.6 | 
14 | CN1CCN(C[C@@H]2Cc3ccccc3CN2C(=O)c2cc3c(cc2-c2cc(C(=O)N(c4ccc(O)cc4)c4ccc5[nH]ccc5c4)cn2C)OCO3)CC1 [Example 4, N-(4-Hydroxyphenyl)-N-(1H-indol-5-yl)-1-methyl-5-(6-{[(3S)-3-[(4-methylpiperazin-1-yl)methyl]-3,4-dihydroisoquinolin-2(1H)-yl]carbonyl}-1,3-benzodioxol-5-yl)-1H-pyrrole-3-carboxamide] | 231 | 
15 | Cc1c(C(=O)N(c2ccccc2)c2ccc(O)cc2)cc(-c2cc(Cl)ccc2C(=O)N2Cc3ccccc3C[C@H]2COCCN(C)C)n1C [Example 60, 5-(5-Chloro-2-{[(3S)-3-{[2-(dimethylamino)ethoxy]methyl}-3,4-dihydroisoquinolin-2(1H)-yl]carbonyl}phenyl)-N-(4-hydroxyphenyl)-1,2-dimethyl-N-phenyl-1H-pyrrole-3-carboxamide hydrochloride] | 18.3 | 
16 | Cc1c(N(C(=O)c2cc(-c3ccc(Cl)cc3C(=O)N3Cc4ccccc4C[C@H]3CN3CCOCC3)n(C)c2C)c2ccc(O)cc2)cc(C#N)n1C [Example 465, 5-(4-Chloro-2-{[(3S)-3-(morpholin-4-ylmethyl)-3,4-dihydroisoquinolin-2(1H)-yl]carbonyl}phenyl)-N-(5-cyano-1,2-dimethyl-1H-pyrrol-3-yl)-N-(4-hydroxyphenyl)-1,2-dimethyl-1H-pyrrole-3-carboxamide hydrochloride] | 50.6 | 
17 | CCOc1ncc(N(C(=O)c2cc(-c3cc(F)ccc3C(=O)N3Cc4ccccc4C[C@H]3CN3CCOCC3)n(C)c2C)c2ccc(O)cc2)cn1 [Example 463, N-(2-Ethoxypyrimidin-5-yl)-5-(5-fluoro-2-{[(3S)-3-(morpholin-4-ylmethyl)-3,4-dihydroisoquinolin-2(1H)-yl]carbonyl}phenyl)-N-(4-hydroxyphenyl)-1,2-dimethyl-1H-pyrrole-3-carboxamide] | 40.8 | 
18 | COc1ccc(N(C(=O)c2cc(-c3cc(Cl)ccc3C(=O)N3Cc4ccccc4C[C@H]3CN3CCOCC3)n(C)c2C)c2ccc(O)cc2)nc1C#N [Example 457, 5-(5-Chloro-2-{[(3S)-3-(morpholin-4-ylmethyl)-3,4-dihydroisoquinolin-2(1H)-yl]carbonyl}phenyl)-N-(6-cyano-5-methoxypyridin-2-yl)-N-(4-hydroxyphenyl)-1,2-dimethyl-1H-pyrrole-3-carboxamide hydrochloride] | 80.4 | 
19 | Cl.[2H]C([2H])([2H])n1cc(N(C(=O)c2cc(-c3cc(F)ccc3C(=O)N3Cc4ccccc4C[C@H]3CN3CCOCC3)n(C)c2C)c2ccc(O)cc2)cn1 [Example 420, 5-(5-Fluoro-2-{[(3S)-3-(morpholin-4-ylmethyl)-3,4-dihydroisoquinolin-2(1H)-yl]carbonyl}phenyl)-N-(4-hydroxyphenyl)-1,2-dimethyl-N-[1-(trideuteriomethyl)-1H-pyrazol-4-yl]-1H-pyrrole-3-carboxamide hydrochloride] | 51.8 | 
